Legend:
[1] = test system: IL-6 production in primary human mesangial cells; experiment: ET-1 induced IL-6 production (ELISA) in primary human renal mesangial cells; assay type: cell-based; details: 72 hours; 10 ng/mL ET-1; read-out: IC50, ET-1 stimulated IL-6 production in HRMCs
[2] = test system: hallmark gene sets in kidney tissue of g-ddY mice; experiment: Gene Set Enrichment Analysis (GSEA) of hallmark gene sets, g-ddY mouse kidney RNA-seq; assay type: in vivo

## CCCCN(CCCC)C(=O)CN1C[C@H](c2ccc3c(c2)OCO3)[C@@H](C(=O)O)[C@@H]1c1ccc(OC)cc1 [Atrasentan, (2R,3R,4S)-4-(1,3-benzodioxol-5-yl)-1-[2-(dibutylamino)-2-oxoethyl]-2-(4-methoxyphenyl)pyrrolidine-3-carboxylic acid]
[1]
  IC50: 0.65 nM
[2]; 10 mg/kg/day vs. control
  HALLMARK_ADIPOGENESIS NES: 2.15
  HALLMARK_ALLOGRAFT_REJECTION NES: −2.25
  HALLMARK_ANDROGEN_RESPONSE NES: 0.88
  HALLMARK_ANGIOGENESIS NES: −1.94
  HALLMARK_APICAL_JUNCTION NES: −1.79
  HALLMARK_APICAL_SURFACE NES: −1.52
  HALLMARK_APOPTOSIS NES: −1.59
  HALLMARK_BILE_ACID_METABOLISM NES: 2.08
  HALLMARK_CHOLESTEROL_HOMEOSTASIS NES: 1.03
  HALLMARK_COAGULATION NES: −1.53
  HALLMARK_COMPLEMENT NES: −1.51
  HALLMARK_DNA_REPAIR NES: 0.79
  HALLMARK_E2F_TARGETS NES: −2.07
  HALLMARK_EPITHELIAL_MESENCHYMAL_TRANSITION NES: −2.47
  HALLMARK_ESTROGEN_RESPONSE_EARLY NES: −1.27
  HALLMARK_ESTROGEN_RESPONSE_LATE NES: −1.18
  HALLMARK_FATTY_ACID_METABOLISM NES: 2.25
  HALLMARK_G2M_CHECKPOINT NES: −2.15
  HALLMARK_GLYCOLYSIS NES: 1.62
  HALLMARK_HEDGEHOG_SIGNALING NES: −1.51
  HALLMARK_HEME_METABOLISM NES: 1.57
  HALLMARK_HYPOXIA NES: −1.38
  HALLMARK_IL2_STAT5_SIGNALING NES: −1.77
  HALLMARK_IL6_JAK_STAT3_SIGNALING NES: −2.34
  HALLMARK_INFLAMMATORY_RESPONSE NES: −2.34
  HALLMARK_INTERFERON_ALPHA_RESPONSE NES: −1.96
  HALLMARK_INTERFERON_GAMMA_RESPONSE NES: −2.26
  HALLMARK_KRAS_SIGNALING_DN NES: 1.28
  HALLMARK_KRAS_SIGNALING_UP NES: −2.24
  HALLMARK_M ITOTIC_SPINDLE NES: −1.55
  HALLMARK_MTORC1_SIGNALING NES: 1.11
  HALLMARK_MYC_TARGETS_V1 NES: −1.17
  HALLMARK_MYC_TARGETS_V2 NES: −0.780
  HALLMARK_MYOGENESIS NES: −1.19
  HALLMARK_NOTCH_SIGNALING NES: 0.83
  HALLMARK_OXIDATIVE_PHOSPHORYLATION NES: 3.06
  HALLMARK_P53_PATHWAY NES: −1.12
  HALLMARK_PANCREAS_BETA_CELLS NES: 0.85
  HALLMARK_PEROXISOME NES: 1.68
  HALLMARK_PI3K_AKT_MTOR SIGNALING NES: −0.92
  HALLMARK_PROTEIN_SECRETION NES: 1.06
  HALLMARK_REACTIVE_OXYGEN_SPECIES_PATHWAY NES: 1.59
  HALLMARK_SPERMATOGENESIS NES: 0.89
  HALLMARK_TGF_BETA_SIGNALING NES: −1.72
  HALLMARK_TNFA_SIGNALING_VIA_NFKB NES: −2.55
  HALLMARK_UNFOLDED_PROTEIN_RESPONSE NES: −0.91
  HALLMARK_UV_RESPONSE_DN NES: −2.19
  HALLMARK_UV_RESPONSE_UP NES: 1.28
  HALLMARK_WNT_BETA_CATENIN_SIGNALING NES: −1.02
  HALLMARK_XENOBIOTIC_METABOLISM NES: 1.95
[2]; 20 mg/kg/day vs. control
  HALLMARK_ADIPOGENESIS NES: 2.26
  HALLMARK_ALLOGRAFT_REJECTION NES: −2.90
  HALLMARK_ANDROGEN_RESPONSE NES: 1.03
  HALLMARK_ANGIOGENESIS NES: −2.19
  HALLMARK_APICAL_JUNCTION NES: −2.24
  HALLMARK_APICAL_SURFACE NES: −1.67
  HALLMARK_APOPTOSIS NES: −2.17
  HALLMARK_BILE_ACID_METABOLISM NES: 2.39
  HALLMARK_CHOLESTEROL_HOMEOSTASIS NES: −1.03
  HALLMARK_COAGULATION NES: −2.11
  HALLMARK_COMPLEMENT NES: −2.01
  HALLMARK_DNA_REPAIR NES: 0.83
  HALLMARK_E2F_TARGETS NES: −2.34
  HALLMARK_EPITHELIAL_MESENCHYMAL_TRANSITION NES: −2.92
  HALLMARK_ESTROGEN_RESPONSE_EARLY NES: −1.52
  HALLMARK_ESTROGEN_RESPONSE_LATE NES: −1.37
  HALLMARK_FATTY_ACID_METABOLISM NES: 2.51
  HALLMARK_G2M_CHECKPOINT NES: −2.26
  HALLMARK_GLYCOLYSIS NES: 1.53
  HALLMARK_HEDGEHOG_SIGNALING NES: −1.72
  HALLMARK_HEME_METABOLISM NES: 1.92
  HALLMARK_HYPOXIA NES: −1.62
  HALLMARK_IL2_STAT5_SIGNALING NES: −2.20
  HALLMARK_IL6_JAK_STAT3_SIGNALING NES: −2.92
  HALLMARK_INFLAMMATORY_RESPONSE NES: −2.96
  HALLMARK_INTERFERON_ALPHA_RESPONSE NES: −2.44
  HALLMARK_INTERFERON_GAMMA_RESPONSE NES: −2.88
  HALLMARK_KRAS_SIGNALING_DN NES: 1.32
  HALLMARK_KRAS_SIGNALING_UP NES: −2.65
  HALLMARK_M ITOTIC_SPINDLE NES: −1.79
  HALLMARK_MTORC1_SIGNALING NES: 1.23
  HALLMARK_MYC_TARGETS_V1 NES: −0.81
  HALLMARK_MYC_TARGETS_V2 NES: 0.76
  HALLMARK_MYOGENESIS NES: −1.60
  HALLMARK_NOTCH_SIGNALING NES: 0.69
  HALLMARK_OXIDATIVE_PHOSPHORYLATION NES: 3.38
  HALLMARK_P53_PATHWAY NES: −1.3
  HALLMARK_PANCREAS_BETA_CELLS NES: 0.98
  HALLMARK_PEROXISOME NES: 1.88
  HALLMARK_PI3K_AKT_MTOR SIGNALING NES: −1.24
  HALLMARK_PROTEIN_SECRETION NES: 1.08
  HALLMARK_REACTIVE_OXYGEN_SPECIES_PATHWAY NES: 1.61
  HALLMARK_SPERMATOGENESIS NES: 1.17
  HALLMARK_TGF_BETA_SIGNALING NES: −1.96
  HALLMARK_TNFA_SIGNALING_VIA_NFKB NES: −3.06
  HALLMARK_UNFOLDED_PROTEIN_RESPONSE NES: −0.64
  HALLMARK_UV_RESPONSE_DN NES: −2.36
  HALLMARK_UV_RESPONSE_UP NES: 1.15
  HALLMARK_WNT_BETA_CATENIN_SIGNALING NES: −1.57
  HALLMARK_XENOBIOTIC_METABOLISM NES: 2.16
[2]; 30 mg/kg/day
  cell proliferation associated signaling (mitotic spindle and G2M checkpoint): reduced
  inflammatory response signaling: reduced
[2]; 30 mg/kg/day vs. control
  HALLMARK_ADIPOGENESIS NES: 2.64
  HALLMARK_ALLOGRAFT_REJECTION NES: −2.12
  HALLMARK_ANDROGEN_RESPONSE NES: 0.92
  HALLMARK_ANGIOGENESIS NES: −1.86
  HALLMARK_APICAL_JUNCTION NES: −2.00
  HALLMARK_APICAL_SURFACE NES: −1.65
  HALLMARK_APOPTOSIS NES: −1.52
  HALLMARK_BILE_ACID_METABOLISM NES: 2.40
  HALLMARK_CHOLESTEROL_HOMEOSTASIS NES: 1.14
  HALLMARK_COAGULATION NES: −1.56
  HALLMARK_COMPLEMENT NES: −1.56
  HALLMARK_DNA_REPAIR NES: 1.52
  HALLMARK_E2F_TARGETS NES: −1.46
  HALLMARK_EPITHELIAL_MESENCHYMAL_TRANSITION NES: −2.60
  HALLMARK_ESTROGEN_RESPONSE_EARLY NES: −1.22
  HALLMARK_ESTROGEN_RESPONSE_LATE NES: 1.16
  HALLMARK_FATTY_ACID_METABOLISM NES: 2.90
  HALLMARK_G2M_CHECKPOINT NES: −1.92
  HALLMARK_GLYCOLYSIS NES: 1.96
  HALLMARK_HEDGEHOG_SIGNALING NES: −1.94
  HALLMARK_HEME_METABOLISM NES: 1.99
  HALLMARK_HYPOXIA NES: −1.18
  HALLMARK_IL2_STAT5_SIGNALING NES: −1.56
  HALLMARK_IL6_JAK_STAT3_SIGNALING NES: −2.33
  HALLMARK_INFLAMMATORY_RESPONSE NES: −2.40
  HALLMARK_INTERFERON_ALPHA_RESPONSE NES: −1.80
  HALLMARK_INTERFERON_GAMMA_RESPONSE NES: −2.26
  HALLMARK_KRAS_SIGNALING_DN NES: −1.12
  HALLMARK_KRAS_SIGNALING_UP NES: −2.31
  HALLMARK_M ITOTIC_SPINDLE NES: −2.02
  HALLMARK_MTORC1_SIGNALING NES: 1.81
  HALLMARK_MYC_TARGETS_V1 NES: 1.26
  HALLMARK_MYC_TARGETS_V2 NES: 0.92
  HALLMARK_MYOGENESIS NES: −1.30
  HALLMARK_NOTCH_SIGNALING NES: −1.15
  HALLMARK_OXIDATIVE_PHOSPHORYLATION NES: 3.69
  HALLMARK_P53_PATHWAY NES: 1.10
  HALLMARK_PANCREAS_BETA_CELLS NES: 1.07
  HALLMARK_PEROXISOME NES: 2.39
  HALLMARK_PI3K_AKT_MTOR SIGNALING NES: 0.83
  HALLMARK_PROTEIN_SECRETION NES: 1.73
  HALLMARK_REACTIVE_OXYGEN_SPECIES_PATHWAY NES: 1.98
  HALLMARK_SPERMATOGENESIS NES: 1.21
  HALLMARK_TGF_BETA_SIGNALING NES: −1.55
  HALLMARK_TNFA_SIGNALING_VIA_NFKB NES: −2.63
  HALLMARK_UNFOLDED_PROTEIN_RESPONSE NES: 0.78
  HALLMARK_UV_RESPONSE_DN NES: −2.39
  HALLMARK_UV_RESPONSE_UP NES: 1.63
  HALLMARK_WNT_BETA_CATENIN_SIGNALING NES: −1.63
  HALLMARK_XENOBIOTIC_METABOLISM NES: 2.38

Reference: patent US20210353593A1 (Chinook Therapeutics, Inc., priority 2019, published 2021)
